The test system of this assay is hippocampal neurons co-treated with toxic Aβ oligomer. The assay is described as follows: Amyloid beta-induced synapse loss in mouse primary hippocampal neurons. To be noted: 6.6 nM. The class given is cell-based. As to the method:
Alzheimer's disease (AD) is tightly associated with the dysmetabolism of amyloid-β (Aβ). To begin assessing whether the polypeptides provided herein (i.e., comprising the FAM19A5 binding domain of LRRC4 protein family members) could have any therapeutic effects on AD, the effect of various FB-21 peptide fragments described herein on the deformation of synapse induced by toxic Aβ oligomer and following structural recovery was assessed. Specifically, the following FB-21 peptide fragments were tested: FB-21, FB-JM-31 and FB-BBB-39 (see Example 10).
Aβ42 (#20276) peptide was purchased from AnaSpec (Fremont, USA). […]
Hippocampal neurons were treated with 6.6 nM FB-21, 6.6 nM of FB-13-JM and 6.6 nM of FB-13-BBBX2 at 14, 17 and 20 DIV to determine the level of synaptogenesis at 21 DIV by immunostaining SYP, a presynapse marker protein and PSD95, a postsynapse marker protein. To quantify fluorescence intensity for SYN and PSD95 and number of colocalized voxels between SYN and PSD95 signals, z-stack confocal images of 3 μm in depth were converted to 3D images using IMARIS software (IMARIS9.0, Bitplane AG, Zurich, Switzerland). The “Surface tool” of the IMARIS software was used to exclude all the signals detected in neuronal cell bodies, and number of colocalized voxels between SYN and PSD95 signals in neurites were calculated using the “Coloc tool”. […]

Square brackets hold non-standard residues; d marks the D form. Ends that are not written are not given here.

Turning to “nYTYFTTVTVETLETQPGEEALDEVMKTTKa ([dN]YTYFTTVTVETLETQPGEEALDEVMKTTK[dA]; also: terminal modifications n and a on first and last residues) [FB peptide with JM sequence]”, the “colocalized voxels for PSD95 and synaptophysin” value is on record as “significant increase in colocalized voxels”.

For the origin of these results see patent US20240238445A1, “INHIBITORS AND USES THEREOF” (NEURACLE SCIENCE CO., LTD., priority 2021, published 2024).
